Several values for one entry are separate records, joined by “and”; a condition that tells them apart may be missing. Equal values may be shown once.
Legend:
[1] = system: biopsy samples from NSCLC patients; assay: HX103-based multicolor FACS, biopsy samples; format: cell-based, human; conditions: for EGFR(+) HX103 (+) (%) / HX103(+) (%): one value per patient
BSA [2] = biological target: T1, BSA (Bos taurus, UniProt P02769); assay: Fluorescence response of HX103 with BSA (control protein); format: binding; conditions: Fig. 2d, n=1-3
BSA [3] = biological target: T1, BSA; assay: Fluorescence spectra of HX103 with BSA (Fig. 2c); format: binding
PC-9 cells = assay: FACS assay in cultured cells; conditions: for HX103 dose-dependent signal (Supplementary Fig. 18): 20 µM = 100
Method: (§1) The FACS assay was performed according to the reported literatures[67],[68]. Briefly, the cultured cells were seeded on the petri dish and counted using Count star BioMed automated cell counter. Around 10^6 live-cells were collected and were pelleted (2000×g, 3 min), followed by washing with PBS (2x). Cells were then resuspended in PBS buffer containing 0.1% BSA (1 × 10^6 cells/mL). […] The cell suspension was resuspended in PBS and analyzed with a FACSVerse^TM flow cytometer (BD Biosciences, LSRFortessa). About 10,000 events per tube were analyzed and the mean fluorescence intensity was detected and analyzed.
(§2) For the FACS assay with EGFR antibody, around 10^6 live-cells were collected and washed with PBS (2x). The cells were fixed by 400 µL 4% paraformaldehyde for 15 min at room temperature, followed by permeabilization with 0.1% Triton X-100 for 10 min and blocking with 5% BSA for 30 min. […] The cells were then washed with 0.5% BSA/PBS (3x) and resuspended in 400 µL of 0.1% BSA/PBS. […] The resuspended cell suspension was then analyzed on a FACSVerseTM flow cytometer (BD Biosciences, LSRFortessa). Nonspecific fluorescence binding was omitted by Rabbit mAb IgG isotype control (#3900, CST, 1:100) and the corresponding mean fluorescence was subtracted from the signal measured with each primary antibody. About 10,000 events per tube were analyzed and the mean fluorescence intensity was detected and analyzed.
(§3) Subsequently, the treated cells were incubated for 30 min at 37 °C, followed by washing with PBS buffer three times. […] Finally, the co-stained cells were washed with 0.5% BSA/PBS for three times and resuspended in 400 µL of 0.1% BSA/PBS. The obtained cell suspension was ready for analysis. Nonspecific fluorescence binding was omitted by Rabbit mAb IgG isotype control (#3900, CST, 1:100) as described above.
(§4) Nonspecific fluorescence binding was omitted by Rabbit mAb IgG isotype control (#3900, CST, 1:100). […] After incubation for another 30 min at room temperature, the co-stained cells were washed with 0.5% BSA/PBS for three times and resuspended in 400 µL of 0.1% BSA/PBS. The obtained cell suspension was ready for analysis. Nonspecific fluorescence binding was omitted by Rabbit mAb IgG isotype control (#3900, CST, 1:100) as described above.
(§5) The cells were seeded on the petri dish and cultured at the normal condition with 10% FBS, and that was changed to serum-free condition for 24 h when the cells proliferated at ~80% confluence. […] Nonspecific fluorescence binding was omitted by Rabbit mAb IgG isotype control (#3900, CST, 1:100) as described above.

A431 cells = assay: FACS assay in cultured cells; conditions: for HX103 dose-dependent signal (Supplementary Fig. 18): 20 µM = 100
Method: Briefly, the cultured cells were seeded on the petri dish and counted using Count star BioMed automated cell counter. Around 10^6 live-cells were collected and were pelleted (2000×g, 3 min), followed by washing with PBS (2x). Cells were then resuspended in PBS buffer containing 0.1% BSA (1 × 10^6 cells/mL). […] The cell suspension was resuspended in PBS and analyzed with a FACSVerse^TM flow cytometer (BD Biosciences, LSRFortessa). About 10,000 events per tube were analyzed and the mean fluorescence intensity was detected and analyzed.
as §2, §3, §4, §5

Jurkat cells = assay: FACS assay in cultured cells
Method: as §1, §2, §3, §4, §5

[4] = Fig. 6d, WT, average over patients
[5] = HX103 5 µM, 30 min, replicates n=1-3

T1 sequence (P02769 25-607): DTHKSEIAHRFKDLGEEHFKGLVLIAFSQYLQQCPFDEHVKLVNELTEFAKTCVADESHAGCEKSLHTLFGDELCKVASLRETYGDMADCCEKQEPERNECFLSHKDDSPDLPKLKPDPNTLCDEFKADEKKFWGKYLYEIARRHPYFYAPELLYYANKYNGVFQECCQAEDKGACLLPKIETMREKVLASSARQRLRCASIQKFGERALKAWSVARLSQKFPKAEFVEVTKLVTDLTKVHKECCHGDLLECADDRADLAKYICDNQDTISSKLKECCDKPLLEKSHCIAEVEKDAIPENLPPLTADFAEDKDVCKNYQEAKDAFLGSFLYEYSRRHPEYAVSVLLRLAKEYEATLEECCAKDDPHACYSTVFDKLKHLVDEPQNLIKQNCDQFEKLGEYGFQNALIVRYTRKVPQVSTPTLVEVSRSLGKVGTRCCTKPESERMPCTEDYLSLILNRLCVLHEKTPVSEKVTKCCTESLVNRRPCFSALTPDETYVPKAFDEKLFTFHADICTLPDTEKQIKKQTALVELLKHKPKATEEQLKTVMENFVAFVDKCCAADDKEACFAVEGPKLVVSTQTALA

Fluorescence intensity at 570 nm (BSA [2]): 39.1473 and 21.3173 and 35.8927
Fluorescence intensity, BSA (BSA [3]; wavelength 666 nm): 1883.79
Fluorescence intensity, BSA (BSA [3]; wavelength 669 nm): 1770.88
Fluorescence intensity, BSA (BSA [3]; wavelength 671 nm): 1700.55
Fluorescence intensity, BSA (BSA [3]; wavelength 673 nm): 1676.53
Fluorescence intensity, BSA (BSA [3]; wavelength 676 nm): 1671.89
Fluorescence intensity, BSA (BSA [3]; wavelength 678 nm): 1658.01
Fluorescence intensity, BSA (BSA [3]; wavelength 681 nm): 1606.53
Fluorescence intensity, BSA (BSA [3]; wavelength 683 nm): 1507.19
Fluorescence intensity, BSA (BSA [3]; wavelength 686 nm): 1380.4
Fluorescence intensity, BSA (BSA [3]; wavelength 688 nm): 1249.52
Fluorescence intensity, BSA (BSA [3]; wavelength 690 nm): 1137.89
Fluorescence intensity, BSA (BSA [3]; wavelength 693 nm): 1060.59
Fluorescence intensity, BSA (BSA [3]; wavelength 695 nm): 1011.56
Fluorescence intensity, BSA (BSA [3]; wavelength 698 nm): 981.361
Fluorescence intensity, BSA (BSA [3]; wavelength 700 nm): 960.577
Structure (SMILES): COc1cc2c(Nc3ccc(F)c(Cl)c3)ncnc2cc1OCCCNc1ccc(S(=O)(=O)N(C)C)c2nonc12 [HX103]
HX103 (+) (%) AVE ([1]; Fig. 6d, Mutation, average over patients): 48.2347%
EGFR(+) HX103 (+) (%) ([1]; Fig. 6d, Mutation): 47.7% and 46.42% and 26.16% and 37.95% and 54.7% and 42.61% and 34.2% and 4.84% and 50.92% and 41.57% and 2.07% and 30.8% and 55.7% and 4.81%
HX103(+) (%) ([1]; Fig. 6d, Mutation): 47.95% and 53.5% and 30.41% and 49.49% and 61.89% and 48.6% and 51.54% and 13.72% and 92.61% and 50.98% and 11.82% and 76% and 77.45% and 45.5% and 12.06%
EGFR(+) HX103 (+) (%) AVE [1, 4]: 3.4875%
HX103 (+) (%) AVE [1, 4]: 10.0231%
EGFR(+) HX103 (+) (%) ([1]; Fig. 6d, WT): 2.605% and 13.7% and 4.44% and 3.27% and 0.6% and -0.34% and 1.35% and 4.89% and 0.098% and 0.24% and 1.08% and 10.76% and 4.24% and 2.1% and 0.447% and 6.32%
HX103(+) (%) ([1]; Fig. 6d, WT): 5.005% and 21.85% and 10.96% and 7.41% and 3.16% and -1.81% and 3.59% and 12.92% and 4.005% and 1.16% and 7.12% and 18.43% and 19.52% and 10.47% and 20.56% and 16.02%
mean ratio of EGFR(+)HX103(+), non-responders ([1]; SD or PD, n = 4): 9.5 ± 5.6%
mean ratio of HX103(+), non-responders ([1]; SD or PD, n = 4): 17.0 ± 4.5%
normalized MFI of HX103 labeling (PC-9 cells; [5]): 81.9742% and 91.6309% and 86.8026%
EGFR(+) HX103 (+) (%) (PC-9 cells; HX103 5 µM, replicates n=1-3): 64.51% and 67.13% and 48.39%
EGFR(+) HX103 (+) (%) AVE (PC-9 cells; PC-9, AVE of n=3): 60.01%
HX103 (+) (%) AVE (PC-9 cells; PC-9, AVE of n=3): 59.6433%
HX103 dose-dependent signal (Supplementary Fig. 18) (PC-9 cells; PC-9, HX103 0.37 µM): 18.3072 and 15.0075 and 16.6544
HX103 dose-dependent signal (Supplementary Fig. 18) (PC-9 cells; PC-9, HX103 3.3 µM): 59.5109 and 51.9447 and 55.7208
HX103 dose-dependent signal (Supplementary Fig. 18) (PC-9 cells; PC-9, HX103 10 µM): 68.1021 and 78.5978 and 73.3469
HX103 dose-dependent signal (Supplementary Fig. 18) (PC-9 cells; PC-9, HX103 15 µM): 80.0389 and 87.1198 and 83.5744
HX103 dose-dependent signal (Supplementary Fig. 18) (PC-9 cells; PC-9, HX103 20 µM): 100
HX103 signal (Supplementary Fig. 7) (PC-9 cells; PC-9, HX103 alone or with Gefitinib, replicates n=1-3): 103.242 and 99.7186 and 97.0394
EGFR(+) HX103 (+) (%) (PC-9 cells; PC-9, replicates n=1-3): 48.39% and 64.51% and 67.13%
HX103(+) (%) (PC-9 cells; PC-9, replicates n=1-3): 59.69% and 66.68% and 52.56%
EGFR(+) HX103 (+) (%) AVE (A431 cells; A431, AVE of n=3): 62.105%
HX103 (+) (%) AVE (A431 cells; A431, AVE of n=3): 75.74%
HX103 dose-dependent signal (Supplementary Fig. 18) (A431 cells; A431, HX103 0.37 µM): 15.6053 and 17.5852 and 16.5942
HX103 dose-dependent signal (Supplementary Fig. 18) (A431 cells; A431, HX103 1.1 µM): 27.0427 and 32.7871 and 29.9049
HX103 dose-dependent signal (Supplementary Fig. 18) (A431 cells; A431, HX103 3.3 µM): 44.6928 and 49.6432 and 47.158
HX103 dose-dependent signal (Supplementary Fig. 18) (A431 cells; A431, HX103 10 µM): 77.4475 and 86.2684 and 81.868
HX103 dose-dependent signal (Supplementary Fig. 18) (A431 cells; A431, HX103 15 µM): 96.5825 and 89.3875 and 92.975
HX103 dose-dependent signal (Supplementary Fig. 18) (A431 cells; A431, HX103 20 µM): 100
HX103 signal (Supplementary Fig. 7) (A431 cells; A431, HX103 alone or with Gefitinib, replicates n=1-3): 114.212 and 76.0875 and 109.7
EGFR(+) HX103 (+) (%) (A431 cells; A431, replicates n=1-3): 55.07% and 64.605% and 66.64%
HX103(+) (%) (A431 cells; A431, replicates n=1-3): 96.31% and 66.39% and 64.52%
normalized MFI of HX103 labeling (A431 cells; [5]): 83.2618% and 101.288% and 92.2747%
EGFR(+) HX103 (+) (%) (A431 cells; HX103 5 µM, replicates n=1-3): ~ 60% and 64.605% and 66.64% and 55.07%
normalized MFI of HX103 labeling (Jurkat cells; [5]): 17.5966% and 26.6094% and 22.103%
EGFR(+) HX103 (+) (%) (Jurkat cells; HX103 5 µM, replicates n=1-3): 0.1% and 0.22% and -0.02%
EGFR(+) HX103 (+) (%) AVE (Jurkat cells; Jurkat, AVE of n=3): 0.1%
HX103 (+) (%) AVE (Jurkat cells; Jurkat, AVE of n=3): 0.05667%
EGFR(+) HX103 (+) (%) (Jurkat cells; Jurkat, replicates n=1-3): -0.02% and 0.1% and 0.22%
HX103(+) (%) (Jurkat cells; Jurkat, replicates n=1-3): 0.07% and 0.01% and 0.09%

Source: paper PMC9663578, “A fluorogenic probe for predicting treatment response in non-small cell lung cancer with EGFR-activating mutations” (Nature Communications, 2022)
